What was measured:
Experiment in all cases: two-electrode voltage clamp, CFTR current in oocytes
Assay type in all cases: cell-based
[1] = target: T1, MOR263-3 (Mus musculus, UniProt Q8VFQ2); settings: agonist; 30 μM
T1 sequence (Q8VFQ2 1-330): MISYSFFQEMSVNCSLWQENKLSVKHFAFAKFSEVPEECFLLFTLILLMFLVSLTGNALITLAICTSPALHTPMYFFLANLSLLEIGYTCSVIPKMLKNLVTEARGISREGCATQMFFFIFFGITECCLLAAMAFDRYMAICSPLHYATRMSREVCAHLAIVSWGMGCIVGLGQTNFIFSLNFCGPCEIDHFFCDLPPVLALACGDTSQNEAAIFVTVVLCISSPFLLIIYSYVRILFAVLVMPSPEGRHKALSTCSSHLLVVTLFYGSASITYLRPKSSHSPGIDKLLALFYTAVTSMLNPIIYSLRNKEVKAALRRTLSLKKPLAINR

[2] = target: T1, MOR263-3
[3] = target: T2, rhoMOR263-2 (Mus musculus, UniProt Q9EPG4); settings: agonist; 30 μM
T2 sequence (Q9EPG4 1-317): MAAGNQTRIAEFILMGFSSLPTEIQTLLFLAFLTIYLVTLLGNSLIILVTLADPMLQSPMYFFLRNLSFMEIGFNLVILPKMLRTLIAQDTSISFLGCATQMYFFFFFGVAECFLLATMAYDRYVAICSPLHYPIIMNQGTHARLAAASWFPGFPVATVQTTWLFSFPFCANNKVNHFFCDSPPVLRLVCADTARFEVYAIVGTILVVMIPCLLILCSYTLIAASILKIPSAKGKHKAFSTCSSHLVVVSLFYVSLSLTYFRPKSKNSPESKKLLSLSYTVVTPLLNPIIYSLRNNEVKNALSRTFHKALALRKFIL

| SMILES | two-electrode voltage clamp, CFTR current in oocytes [1] | EC50 [2] [µM] | two-electrode voltage clamp, CFTR current in oocytes [3] |
| --- | --- | --- | --- |
| CCCC/C=C/C=C/C=O [trans,trans-2,4-nonadienal] | MOR263-3 responded well to trans,trans-2,4-nonadienal, trans,trans-2,4-decadienal |  |  |
| CCC/C=C/C=C/C=O [trans,trans-2,4-octadienal] |  | 21 ± 6 |  |
| CCCCCCC/C=C/C=O [trans-2-decenal] |  |  | MOR263-2 responded well to trans,trans-2,4-decadienal, trans,trans-2,4-undecadienal, trans-2-decenal |
| CCCCC/C=C/C=O [trans-2-octenal] | MOR263-3 responded well to trans,trans-2,4-nonadienal, trans,trans-2,4-decadienal, trans-2-octenal |  |  |
| CCCCCC/C=C/C=C/C=O [trans,trans-2,4-undecadienal] |  |  | MOR263-2 responded well to trans,trans-2,4-decadienal, trans,trans-2,4-undecadienal |
| CCCCC/C=C/C=C/C=O [trans,trans-2,4-decadienal] | MOR263-3 responded well to trans,trans-2,4-nonadienal, trans,trans-2,4-decadienal |  | MOR263-2 responded well to trans,trans-2,4-decadienal |

Reference: paper PMC4472571 (Journal of neurochemistry, 2015)
